Data set [1] concerns HUVEC. Nature of the data set: Inhibition of bFGF-stimulated HUVEC cell proliferation treated before 2 hrs of bFGF challenge assessed after 72 hrs. It counts as functional, cell-based. The settings on record: Homo sapiens.
Data set [2] deals with Vascular endothelial growth factor receptor 2 (Homo sapiens, UniProt P35968). In words: Inhibition of recombinant KDR by HTRF assay.
Data set [3] can be described thus: Volume of distribution at steady state in Sprague-Dawley rat at 1 mg/kg, iv or 10 mg/kg, po. It counts as ADME, organism-based. The conditions noted are these: in vivo, read-out: Vdss.
Data set [4] concerns HUVEC. Nature of the data set: Inhibition of VEGF-stimulated HUVEC cell proliferation treated before 2 hrs of VEGF challenge assessed after 72 hrs. It counts as functional, cell-based. The settings on record: Homo sapiens.
The nature of data set [5]: AUC (0 to infinity) in Sprague-Dawley rat at 1 mg/kg, iv or 10 mg/kg, po. The conditions noted are these: plasma. It counts as ADME, organism-based.
Data set [6] in a line: Clearance in Sprague-Dawley rat at 1 mg/kg, iv or 10 mg/kg, po. The format is ADME, organism-based. The settings on record: in vivo.
Data set [7] in a line: Bioavailability in Sprague-Dawley rat at 1 mg/kg, iv or 10 mg/kg, po. The format is ADME, organism-based. The conditions noted are these: in vivo.
Data set [8] is described as follows: Half life in Sprague-Dawley rat at 1 mg/kg, iv or 10 mg/kg, po. It counts as ADME, organism-based. The settings on record: in vivo.
The target of data set [9] is Aurora kinase B (Homo sapiens, UniProt Q96GD4). Nature of the data set: Inhibition of aurora 1 kinase.
Aurora kinase B, sequence (Q96GD4 whole entry): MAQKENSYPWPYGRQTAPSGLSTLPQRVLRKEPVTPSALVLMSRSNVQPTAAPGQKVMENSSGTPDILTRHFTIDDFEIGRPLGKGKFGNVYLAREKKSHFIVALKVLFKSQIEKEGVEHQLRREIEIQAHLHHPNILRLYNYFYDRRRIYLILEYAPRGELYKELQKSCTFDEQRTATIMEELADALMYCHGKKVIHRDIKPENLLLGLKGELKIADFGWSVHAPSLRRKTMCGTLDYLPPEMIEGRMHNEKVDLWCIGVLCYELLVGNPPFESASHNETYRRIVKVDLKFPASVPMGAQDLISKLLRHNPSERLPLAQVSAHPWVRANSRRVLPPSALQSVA
Data set [10] concerns HEK293. Nature of the data set: Inhibition of vascular permeability in mouse VEGF expressing HEK293 cells xenografted in po dosed athymic nude mouse. It counts as functional, organism-based. The conditions noted are these: Homo sapiens.
The target of data set [11] is Phosphatidylinositol 4,5-bisphosphate 3-kinase catalytic subunit alpha isoform (Homo sapiens, UniProt P42336). Nature of the data set: Inhibition of PI3K.
For data set [12], the target named is Hepatocyte growth factor receptor (Homo sapiens, UniProt P08581). Nature of the data set: Inhibition of cMET.
Hepatocyte growth factor receptor, sequence (P08581 whole entry): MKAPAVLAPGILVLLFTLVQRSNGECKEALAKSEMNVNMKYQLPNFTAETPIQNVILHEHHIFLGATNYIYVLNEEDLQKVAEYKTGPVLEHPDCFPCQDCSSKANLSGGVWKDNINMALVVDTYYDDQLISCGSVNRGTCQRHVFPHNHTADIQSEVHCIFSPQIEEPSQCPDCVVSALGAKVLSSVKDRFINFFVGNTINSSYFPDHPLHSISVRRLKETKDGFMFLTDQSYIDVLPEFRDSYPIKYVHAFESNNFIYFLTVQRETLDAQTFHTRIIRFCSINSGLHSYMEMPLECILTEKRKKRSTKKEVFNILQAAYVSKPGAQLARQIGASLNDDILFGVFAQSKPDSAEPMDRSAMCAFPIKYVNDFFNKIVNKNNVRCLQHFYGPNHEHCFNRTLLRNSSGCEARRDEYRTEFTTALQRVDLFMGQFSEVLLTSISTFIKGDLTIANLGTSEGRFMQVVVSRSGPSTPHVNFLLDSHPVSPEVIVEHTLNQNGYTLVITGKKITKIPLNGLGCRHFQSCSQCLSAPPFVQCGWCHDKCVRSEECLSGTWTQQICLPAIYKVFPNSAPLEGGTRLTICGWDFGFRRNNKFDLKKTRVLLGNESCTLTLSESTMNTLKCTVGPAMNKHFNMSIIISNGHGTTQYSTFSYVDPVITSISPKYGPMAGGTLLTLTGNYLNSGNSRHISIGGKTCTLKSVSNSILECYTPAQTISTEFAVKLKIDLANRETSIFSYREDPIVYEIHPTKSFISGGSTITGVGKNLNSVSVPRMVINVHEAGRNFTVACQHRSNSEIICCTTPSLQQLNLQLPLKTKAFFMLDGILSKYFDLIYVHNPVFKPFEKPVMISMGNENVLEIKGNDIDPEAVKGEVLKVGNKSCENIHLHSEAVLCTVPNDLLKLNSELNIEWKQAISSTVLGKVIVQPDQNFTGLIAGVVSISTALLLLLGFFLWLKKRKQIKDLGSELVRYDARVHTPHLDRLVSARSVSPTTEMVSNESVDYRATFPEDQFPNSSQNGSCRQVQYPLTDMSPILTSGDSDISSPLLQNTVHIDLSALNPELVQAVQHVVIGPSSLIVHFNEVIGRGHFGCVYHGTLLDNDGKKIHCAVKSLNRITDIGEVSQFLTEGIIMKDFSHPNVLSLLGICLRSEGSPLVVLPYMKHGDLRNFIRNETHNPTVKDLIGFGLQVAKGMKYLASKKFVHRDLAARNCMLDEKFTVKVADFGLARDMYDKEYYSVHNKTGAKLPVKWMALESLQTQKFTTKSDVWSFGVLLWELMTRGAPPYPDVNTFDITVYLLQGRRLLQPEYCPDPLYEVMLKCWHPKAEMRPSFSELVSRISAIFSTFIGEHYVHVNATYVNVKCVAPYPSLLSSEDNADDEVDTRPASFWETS
Data set [13] has as its target Mitogen-activated protein kinase 14 (Homo sapiens, UniProt Q16539). Nature of the data set: Inhibition of p38alpha.
Data set [14] concerns the target T1, Aurora kinase A (Homo sapiens, UniProt O14965).
T1 sequence (O14965 whole entry): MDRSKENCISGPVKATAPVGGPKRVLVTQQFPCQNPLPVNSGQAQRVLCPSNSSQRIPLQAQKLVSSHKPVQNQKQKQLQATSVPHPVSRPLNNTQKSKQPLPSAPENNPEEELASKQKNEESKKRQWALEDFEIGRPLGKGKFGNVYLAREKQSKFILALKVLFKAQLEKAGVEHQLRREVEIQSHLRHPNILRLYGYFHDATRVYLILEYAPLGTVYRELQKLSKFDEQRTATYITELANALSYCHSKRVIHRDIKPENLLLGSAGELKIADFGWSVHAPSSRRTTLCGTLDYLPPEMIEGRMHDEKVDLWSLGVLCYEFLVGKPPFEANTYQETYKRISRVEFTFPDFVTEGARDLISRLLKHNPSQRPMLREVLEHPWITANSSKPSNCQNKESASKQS
Nature of the data set: Inhibition of aurora 2 kinase.

Data set [15] concerns the target Angiopoietin-1 receptor (Homo sapiens, UniProt Q02763). In words: Inhibition of Tie 2.
Data set [16] relates to Mus musculus. Nature of the data set: Plasma concentration in mouse VEGF expressing HEK293 cells xenografted in athymic nude mouse at 30 mg/kg, po. It counts as ADME, organism-based. The arrangement: dose 30 mg/kg, route oral. The settings on record: in vivo.
Data set [17] has as its system Mus musculus. Nature of the data set: Plasma concentration in mouse VEGF expressing HEK293 cells xenografted in athymic nude mouse at 10 mg/kg, po. The format is ADME, organism-based. The arrangement: dose 10 mg/kg, route oral. The settings on record: in vivo.

The structures appear in SMILES notation.

Vascular endothelial growth factor receptor 2, sequence (P35968 whole entry): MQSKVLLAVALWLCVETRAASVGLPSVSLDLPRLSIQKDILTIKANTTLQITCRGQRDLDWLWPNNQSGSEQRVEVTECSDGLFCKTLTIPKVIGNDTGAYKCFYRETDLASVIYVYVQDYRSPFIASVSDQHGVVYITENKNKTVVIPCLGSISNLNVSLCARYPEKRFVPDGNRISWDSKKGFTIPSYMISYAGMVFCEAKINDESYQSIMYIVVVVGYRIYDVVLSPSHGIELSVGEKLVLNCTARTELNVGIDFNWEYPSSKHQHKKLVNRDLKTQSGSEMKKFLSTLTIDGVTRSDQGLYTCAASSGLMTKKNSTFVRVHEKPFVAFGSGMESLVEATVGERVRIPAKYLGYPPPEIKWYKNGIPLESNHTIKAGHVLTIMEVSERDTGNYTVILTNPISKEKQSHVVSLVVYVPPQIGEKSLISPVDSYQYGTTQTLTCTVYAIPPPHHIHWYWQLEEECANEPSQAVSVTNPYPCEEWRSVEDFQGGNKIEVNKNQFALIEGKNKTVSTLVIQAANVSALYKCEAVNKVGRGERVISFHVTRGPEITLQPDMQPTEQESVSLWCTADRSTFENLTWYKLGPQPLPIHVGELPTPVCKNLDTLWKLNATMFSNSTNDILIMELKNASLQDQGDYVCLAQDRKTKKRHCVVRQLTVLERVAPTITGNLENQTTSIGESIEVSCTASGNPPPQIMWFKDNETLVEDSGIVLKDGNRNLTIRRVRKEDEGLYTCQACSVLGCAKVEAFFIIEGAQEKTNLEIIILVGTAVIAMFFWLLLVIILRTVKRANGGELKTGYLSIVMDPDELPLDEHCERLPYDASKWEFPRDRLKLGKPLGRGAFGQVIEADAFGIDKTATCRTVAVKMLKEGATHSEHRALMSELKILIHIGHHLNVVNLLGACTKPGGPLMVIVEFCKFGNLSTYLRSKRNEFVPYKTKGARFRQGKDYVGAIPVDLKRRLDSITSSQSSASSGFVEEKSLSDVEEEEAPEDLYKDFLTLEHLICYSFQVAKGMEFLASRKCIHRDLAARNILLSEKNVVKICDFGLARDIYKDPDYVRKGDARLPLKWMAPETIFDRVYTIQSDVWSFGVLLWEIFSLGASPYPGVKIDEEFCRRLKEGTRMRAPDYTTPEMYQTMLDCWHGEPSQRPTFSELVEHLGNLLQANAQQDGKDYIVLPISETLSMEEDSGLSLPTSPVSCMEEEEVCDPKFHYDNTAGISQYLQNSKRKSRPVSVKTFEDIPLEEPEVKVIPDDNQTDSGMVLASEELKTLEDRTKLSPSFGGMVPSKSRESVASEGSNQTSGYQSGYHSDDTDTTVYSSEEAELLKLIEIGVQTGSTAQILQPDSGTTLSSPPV
Angiopoietin-1 receptor, sequence (Q02763 whole entry): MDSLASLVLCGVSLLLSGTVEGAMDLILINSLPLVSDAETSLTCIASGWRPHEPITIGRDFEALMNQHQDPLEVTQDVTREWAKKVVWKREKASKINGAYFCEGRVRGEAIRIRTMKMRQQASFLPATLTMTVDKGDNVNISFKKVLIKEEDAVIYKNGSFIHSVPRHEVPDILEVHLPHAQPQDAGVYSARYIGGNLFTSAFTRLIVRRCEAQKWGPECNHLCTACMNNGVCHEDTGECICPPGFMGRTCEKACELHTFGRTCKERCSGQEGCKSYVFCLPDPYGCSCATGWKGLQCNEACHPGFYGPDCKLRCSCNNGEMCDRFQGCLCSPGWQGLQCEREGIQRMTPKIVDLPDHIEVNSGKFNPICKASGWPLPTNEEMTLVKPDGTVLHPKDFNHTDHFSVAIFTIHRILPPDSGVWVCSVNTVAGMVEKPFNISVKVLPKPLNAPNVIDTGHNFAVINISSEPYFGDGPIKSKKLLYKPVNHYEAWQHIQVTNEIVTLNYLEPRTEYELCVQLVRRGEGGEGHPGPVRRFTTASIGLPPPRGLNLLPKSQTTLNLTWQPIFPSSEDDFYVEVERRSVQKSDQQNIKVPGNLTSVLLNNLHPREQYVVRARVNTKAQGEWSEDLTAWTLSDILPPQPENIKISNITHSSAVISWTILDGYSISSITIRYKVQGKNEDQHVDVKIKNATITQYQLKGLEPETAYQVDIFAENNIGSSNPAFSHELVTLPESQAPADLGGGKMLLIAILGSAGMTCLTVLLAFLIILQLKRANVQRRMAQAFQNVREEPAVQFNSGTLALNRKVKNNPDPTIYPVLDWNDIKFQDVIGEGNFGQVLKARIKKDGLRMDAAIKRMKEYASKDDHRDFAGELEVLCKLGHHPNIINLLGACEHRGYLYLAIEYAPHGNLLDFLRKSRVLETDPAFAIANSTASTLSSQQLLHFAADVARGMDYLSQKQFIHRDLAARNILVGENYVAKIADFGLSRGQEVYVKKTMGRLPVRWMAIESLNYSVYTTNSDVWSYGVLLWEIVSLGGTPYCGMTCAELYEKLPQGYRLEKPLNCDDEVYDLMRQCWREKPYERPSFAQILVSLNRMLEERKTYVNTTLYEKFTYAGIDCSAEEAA
Mitogen-activated protein kinase 14, sequence (Q16539 whole entry): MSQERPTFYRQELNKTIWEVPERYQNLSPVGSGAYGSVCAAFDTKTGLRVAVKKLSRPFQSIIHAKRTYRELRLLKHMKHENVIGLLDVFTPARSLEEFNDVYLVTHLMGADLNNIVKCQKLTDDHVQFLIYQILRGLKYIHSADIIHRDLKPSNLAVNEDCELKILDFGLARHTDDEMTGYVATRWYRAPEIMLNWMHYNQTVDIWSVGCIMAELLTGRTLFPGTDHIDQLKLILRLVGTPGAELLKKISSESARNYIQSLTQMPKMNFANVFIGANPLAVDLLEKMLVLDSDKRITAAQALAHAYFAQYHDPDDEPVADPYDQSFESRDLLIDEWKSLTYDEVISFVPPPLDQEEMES

With `COc1cc2nccc(Oc3ccc4c(NC(=O)c5ccccc5Cl)nn(C)c4c3)c2cc1OC`, the IC50 in [1] was over 1000 nM; in [2], 8 nM.

Take `COc1cc2nccc(Oc3ccc4c(NC(=O)c5cccc(C)c5)nn(C)c4c3)c2cc1OC`: in [3], the Vd was 2.4 L/kg. For the same compound, the IC50 in data set [4] was 2 nM; in [1] it was over 1000 nM; in [2], 2 nM. In data set [5], this compound returned an AUC(0-inf) of 153 ng·h/mL. This compound also had a clearance in data set [6] of 20 mL/min/kg. The compound also displayed a bioavailability in data set [7] of 12%. Moreover, in data set [8], the half-life is 2.7 h.

For `COc1cc2nccc(Oc3ccc4c(Nc5ccc(C(F)(F)F)cc5)nn(C)c4c3)c2cc1OC`, the values for the IC50 in data set [1] and in data set [2] were over 1000 nM and 70 nM, respectively.

For the compound `COc1cc2nccc(Oc3ccc4c(Nc5ccccc5)nn(C)c4c3)c2cc1OC`, the IC50 is over 1000 nM in data set [1] and 270 nM in [2].

As to `COc1cc2nccc(Oc3ccc4c(NCc5ccccc5)nn(C)c4c3)c2cc1OC`, the IC50 in [1] was over 1000 nM; in data set [2], 60 nM.

With `COc1cc2nccc(Oc3ccc4c(NC(=O)c5cc(Cl)ccn5)nn(C)c4c3)c2cc1OC`, the IC50 was 27 nM in data set [4], over 1000 nM in data set [1] and 2 nM in data set [2].

As to `COc1ccc(Nc2nn(C)c3cc(Oc4ccnc5cc(OC)c(OC)cc45)ccc23)cc1`, the IC50 in data set [1] is over 1000 nM; in [2], 160 nM.

For `COc1ccccc1Nc1cccc2cc(Oc3ccnc4cc(OC)c(OC)cc34)ccc12`, the IC50 in [2] stood at 1 nM.

Regarding `COc1cc2nccc(Oc3ccc4c(NC(=O)c5ccc(Cl)cc5)nn(C)c4c3)c2cc1OC`, the IC50 in [4] is 61 nM; in data set [1], over 1000 nM; in [2], 5 nM.

Consider `COc1ccc(NC(=O)Nc2nn(C)c3cc(Oc4ccnc5cc(OC)c(OC)cc45)ccc23)cc1`, for which the IC50 was 7 nM in data set [4], over 1000 nM in data set [1] and 1 nM in [2].

Consider `CCCCNc1nn(C)c2cc(Oc3ccnc4cc(OC)c(OC)cc34)ccc12`, for which the IC50 in [1] was over 1000 nM; in [2], 800 nM.

As for `CCCNc1nn(C)c2cc(Oc3ccnc4cc(OC)c(OC)cc34)ccc12`, the results for the IC50 in [1] and in data set [2] were over 1000 nM and 1110 nM, respectively.

As for `COc1cc2nccc(Oc3ccc4c(NC(=O)Nc5ccc(C)cc5)nn(C)c4c3)c2cc1OC`, the results for the IC50 in [4], in [1] and in data set [2] were 3 nM, over 1000 nM and 2 nM, respectively.

With `COc1cc2nccc(Oc3ccc4c(NC(=O)c5cccc(C(F)(F)F)c5)nn(C)c4c3)c2cc1OC`, the IC50 in [9] is 45 nM; in [11], 3250 nM; in data set [4], 9 nM; in data set [12], 3320 nM; in data set [1], over 1000 nM; in [2], 1 nM. For the same compound, the IC50 in data set [13] was found to be 1650 nM; in data set [14] it was 764 nM; in data set [15], 121 nM. For the same compound, the Vd in data set [3] came out at 1.4 L/kg. Moreover, the Activity entry in data set [10] was “Dose-dependent effect”. Moreover, the AUC(0-inf) in data set [5] amounted to 1530 ng·h/mL. The compound further gave a clearance in [6] of 11.7 mL/min/kg. In addition, the bioavailability in [7] amounted to 46%. Moreover, the results for the Cp in data set [16] and in data set [17] were 347 ng/mL and 181 ng/mL, respectively. The compound further gave a half-life in [8] of 2.2 h.

`COc1cc2nccc(Oc3ccc4c(NC(=O)C5CC5)nn(C)c4c3)c2cc1OC`: the IC50 is over 1000 nM in [1] and 344 nM in data set [2].

As for `COc1cc2nccc(Oc3ccc4c(NC(=O)c5ccc(C(F)(F)F)cc5)nn(C)c4c3)c2cc1OC`, the IC50 in data set [4] is 79 nM; in data set [1] it was over 1000 nM; in data set [2], 3 nM.

Consider `COc1cc2nccc(Oc3ccc4c(Nc5ccccc5)cccc4c3)c2cc1OC`, for which the IC50 in [2] was 2 nM.

On to `COc1cccc(Nc2nn(C)c3cc(Oc4ccnc5cc(OC)c(OC)cc45)ccc23)c1`, for which the IC50 was over 1000 nM in [1] and 230 nM in [2].

For the compound `COc1cc2nccc(Oc3ccc4c(N)nn(C)c4c3)c2cc1OC`, the figures for the IC50 in [1] and in data set [2] were over 1000 nM and 1700 nM, respectively.

With `COc1cc2nccc(Oc3ccc4c(NC(=O)Nc5ccc(C(F)(F)F)cc5Cl)nn(C)c4c3)c2cc1OC`, the IC50 is 1150 nM in [4], over 1000 nM in [1] and 8 nM in data set [2].

For `CCNc1nn(C)c2cc(Oc3ccnc4cc(OC)c(OC)cc34)ccc12`, the IC50 in [1] was over 1000 nM; in data set [2] it was 370 nM.

In the case of `COc1cc2nccc(Oc3ccc4c(NC(=O)c5cc(C(F)(F)F)cc(C(F)(F)F)c5)nn(C)c4c3)c2cc1OC`, the results for the IC50 in [4], in data set [1] and in [2] were 58 nM, over 1000 nM and 2 nM, respectively.

For the compound `COc1ccc(C(=O)Nc2nn(C)c3cc(Oc4ccnc5cc(OC)c(OC)cc45)ccc23)cc1`, the IC50 was 32 nM in data set [4], over 1000 nM in data set [1] and 3 nM in [2].

Consider `COc1cc2nccc(Oc3ccc4c(NC(=O)Nc5ccccc5)nn(C)c4c3)c2cc1OC`, for which the Vd in data set [3] came to 2 L/kg. The IC50 in data set [4] is 6 nM; in data set [1], over 1000 nM; in data set [2], 2 nM. Further, the AUC(0-inf) in data set [5] is 121 ng·h/mL. The clearance in data set [6] is 6.67 mL/min/kg. Also, in data set [7], the bioavailability came to 2%. The half-life in [8] was 4.3 h.

As to `COc1cc2nccc(Oc3ccc4c(NC(=O)c5ccc(F)c(Cl)c5)nn(C)c4c3)c2cc1OC`, in [3], the Vd amounted to 2.1 L/kg. Further, the IC50 is 9 nM in data set [4], over 1000 nM in data set [1] and 3 nM in data set [2]. In data set [6], this compound had a clearance of 21.7 mL/min/kg. The same compound had a half-life in data set [8] of 1.5 h.

A word on the IC50: it is the midpoint of a concentration-inhibition curve. As usually defined, the AUC(0-inf) is total exposure, with the tail of the curve extrapolated. Low values mean less exposure, high ones more exposure. Broadly, the bioavailability is dose-corrected exposure relative to a reference, in per cent. A higher bioavailability goes with much systemic uptake. In general, half-life refers to the time in which the quantity being followed falls by half. Low values mean fast loss, high ones slow loss.

The record behind these values is ChEMBL document CHEMBL1157345, “Evaluation of indazole-based compounds as a new class of potent KDR/VEGFR-2 inhibitors” (Bioorg Med Chem Lett, 2008).
